Experimental findings from patent publication US4440740A, “α-Keto aldehydes as enhancing agents of gastro-intestinal drug absorption” (Merck & Co., Inc., priority 1982, dated 1984) are described below.

Series [1] is described as follows: duodenal absorption of cyclic hexapeptide somatostatin analog with phenylglyoxal. As to conditions: rat, in vivo, 0.4 mg, pH 5, duodenal, 0.4 mg peptide, 250 μl, read-out: Percent Bioavailability. Here is the method:
(§1) Effect of Phenylglyoxal on Rectal and Duodenal Absorption of a Cyclic Hexapeptide Somatostatin Analog Specifically Cyclo-(N-Me-Ala-Tyr-D-Trp-Lys-Val-Phe)
(§2) 250 μl volume, pH 5/animal
(§3) Cyclo-(N--Me--Ala--Tyr--D-Trp--Lvs--Val--Phe)
duodenal 250 μl injection 1 cm distal to pylorus

A short description of series [2]: rectal absorption of cyclic hexapeptide somatostatin analog with phenylglyoxal. As to conditions: rat, in vivo, 0.4 mg, pH 5, rectal, 0.4 mg peptide, 250 μl, read-out: Percent Bioavailability. The protocol:
as §1, §2, §3
microenema 250 μl at 2.5 cm intrarectal depth

Series [3] in a line: rectal absorption of Ara-C with methylglyoxal or phenylglyoxal. As to conditions: in vivo. The source says:
Effect of methylglyoxal and phenylglyoxal on rectal absorption of Ara-C, 4-Amino-1β-D-Arabinofuranosyl-2(1H)-pyrimidinone (Cytarabine), an antineoplastic, antiviral agent
Ara-C present at 1% w/v concentration

The nature of series [4]: rectal drug bioavailability in rats, aqueous microenema with α-keto aldehyde absorption enhancer, versus intravenous administration. In kind it is in vivo. As to conditions: 10 mg/kg. The protocol: Aqueous microenemas were administered to rats at an intrarectal depth of 2.5 cm containing 10 mg/kg target drug and 20 mg/kg α-keto aldehyde absorption enhancer. Serum samples were collected and drug bioavailability determined versus intravenous administration of the target compound. Glyoxylic acid, methylglyoxal and phenylglyoxal were tested as representative compounds in the α-keto aldehyde series. Data has been oriented for rectal delivery of two antibiotics (shown below).

For `CC(C)[C@@H]1NC(=O)[C@H](CCCCN)NC(=O)[C@@H](Cc2c[nH]c3ccccc23)NC(=O)[C@H](Cc2ccc(O)cc2)NC(=O)[C@H](C)N(C)C(=O)[C@H](Cc2ccccc2)NC1=O` [Cyclo-(N-Me-Ala-Tyr-D-Trp-Lys-Val-Phe)], the bioavailability (usually the share of a dose that reaches the circulation, judged against a reference dose that is usually intravenous) came to 1% in series [1] (phenylglyoxal 0 mg/ml), 20% in series [1] (phenylglyoxal 25 mg/ml), 7% in series [2] (phenylglyoxal 0 mg/ml) and 34% in series [2] (phenylglyoxal 25 mg/ml).

Take `Nc1ccn([C@@H]2O[C@H](CO)[C@@H](O)[C@@H]2O)c(=O)n1` [Ara-C, 4-Amino-1β-D-Arabinofuranosyl-2(1H)-pyrimidinone, reference compound]: the bioavailability in series [3] (rectal, Ara-C 1% w/v, adjuvant: none) is 13.1%. Further, the AUC at 1.5 h in series [3] (rectal, Ara-C 1% w/v, adjuvant: none, 0-90 min, read-out: 0 min-90 min (quantity head is drawing 2) of Ara-C (converted)) is 1250 ng·h/mL.

For gentamicin sulfate, the “% bioavailability, control formulations” value in series [4] (rectal, control formulation without keto aldehyde adjuvant, mean, 3 animals) is reported as 5%.

As to `O=CC(=O)c1ccccc1` [Phenylglyoxal, phenyl glyoxal], the “% Bioavailability of Ara-C” value in series [3] was 70.5%. Also, in series [3] (90 min), the “0 min-90 min (quantity head is drawing 2) of Ara-C” value amounted to 798 ± 71.0 µg·min/mL.

Turning to `CO[C@@]1(NC(=O)Cc2cccs2)C(=O)N2C(C(=O)O)=C(COC(N)=O)CS[C@@H]21` [sodium cefoxitin, (6R-cis)-3-[[(Aminocarbonyloxy]methyl]-7-methoxy-8-oxo-7-[(2-thienylacetyl))amino]-5-thia-1-azabicyclo-[4.2.0]oct-2-ene-2-carboxylic acid], the bioavailability in series [4] (rat, in vivo) was 5%.
